We go through 2 substances from paper PMC7934871 (JCI Insight, 2021).

Series [1] concerns HCT116 xenograft tumors. Put plainly: HCT116 xenograft in NSG mice, peritumoral treatment. The format is in vivo, mouse. As to conditions: HCT116 s.c. in NSG mice, 1 mg/kg peritumoral every day, n = 4. On the procedure: Mouse care and experimental procedures were performed under pathogen-free conditions in accordance with established institutional guidance and approved IACUC protocols from Research Animal Care Committee of the City of Hope. For s.c. tumor challenge, 5 × 10^6 HCT116 cells were injected into NSG mice from The Jackson Laboratory or animal resource core facility at the City of Hope. After tumors reached an average size of 80~100 mm^3, mice were locally or intravenously treated with 1 mg/kg of PO- or PS-peptides (Anaspec) every day or every other day. Control animals were treated with the equal volume of HBSS (Invitrogen, Thermo Fisher Scientific). Tumor growth was measured by a digital caliper every other day. […] Lungs were then analyzed for immune responses by immunostaining followed by confocal imaging. […] Tumor growth was measured by a digital caliper every other day. […]
(B) PS-acet.-STAT3 peptide downregulates STAT3 phosphorylation, assessed by Western blotting using tumor homogenates prepared from tumors shown in A.
(C) mRNA levels for CASP9, BIRC5 and BCL2L1 in the same tumor tissues described above were assessed by qRT-PCR. […]
(D) Treatments with PS-acet.-STAT3 peptide induced cell death, indicated by H&E staining (upper panel). […] Right panels represent quantification of Ki-67 protein levels and mean of vessel diameter (data include 5 fields of view per group). […]

Series [2] deals with B16 melanoma. Put plainly: B16 melanoma lung metastasis in C57BL/6 mice. The format is in vivo, mouse. As to conditions: B16 i.v. in C57BL/6 mice, 1 mg/kg i.v. every other day, gp100 staining, n = 5. An excerpt: Figure 7 PS-acet.-STAT3 peptide treatment efficiently reduces mouse melanoma lung metastasis. (A) Systemic PS-acet.-STAT3 peptide treatment reduces B16 lung nodules in syngeneic mouse model compared with control treatments. The B16 lung nodules in mice treated with the indicated STAT3 peptides and vehicle (n = 5) were visualized by IF staining of gp100 and quantified by confocal microscopy and Zen software. The levels of phosphorylation of STAT3 (p-STAT3), CD69, and Foxp3 in the tumor or tumor-infiltrating CD8^+ T or CD4^+ T cells were detected by IF staining followed by confocal microscopy in B16 metastatic lung nodules upon treatments with vehicle, PO- or PS-acet.-STAT3, PS-STAT3-K685R, or PS-unacet.-STAT3 peptides as indicated. Images are representative of 5 lungs per experimental group. Scale bars: 20 μm (CD69, CD8, CD4, p-STAT3, and Foxp3) and 100 μm (gp100). White arrows indicate the immune cells. Insets: original magnification, ×40. (B) The graphs show the quantification of gp100 and p-STAT3 expression levels (MFI) or the cell population (%) of CD69^+ in CD8^+ or p-STAT3^+ in CD4^+ or Foxp3^+ in CD4^+ (data represent 5 lungs per group, n = 5). SD is shown. One-way ANOVA; ****P < 0.001.
Mouse care and experimental procedures were performed under pathogen-free conditions in accordance with established institutional guidance and approved IACUC protocols from Research Animal Care Committee of the City of Hope. For s.c. tumor challenge, 5 × 10^6 HCT116 cells were injected into NSG mice from The Jackson Laboratory or animal resource core facility at the City of Hope. After tumors reached an average size of 80~100 mm^3, mice were locally or intravenously treated with 1 mg/kg of PO- or PS-peptides (Anaspec) every day or every other day. Control animals were treated with the equal volume of HBSS (Invitrogen, Thermo Fisher Scientific). Tumor growth was measured by a digital caliper every other day. To study the effects of the modified peptides at protein and gene levels, mice were euthanized 4–6 weeks after tumor injection. B16 melanoma lung metastasis was performed by injecting 0.5 × 10^6 B16 cells into bloodstream of C57BL/6 mice (The Jackson Laboratory). One day after tumor challenge, mice were treated intravenously (retro-orbitally) with 1 mg/kg of PO- or PS-acet.-STAT3, PS-unacet.-STAT3, or PS-STAT3-K685R peptides every other day until the endpoint as indicated. Control mice were treated with HBSS. Lungs were excised from the mice, and B16 nodules were visualized by gp100 staining. Lungs were then analyzed for immune responses by immunostaining followed by confocal imaging. For mouse PDAC model, 5 × 10^6 KPC mouse cells were mixed with Matrigel and subcutaneously injected into C57BL/6 mice (The Jackson Laboratory). After tumors reached an average size of 80~100 mm^3, mice were intravenously treated with 1 mg/kg of PO- or PS-Gp130, PS-oligo, PS-SC-MYC, PS-MYC. or combined PS-Gp130/PS-MYC (0.5 mg/kg, 0.5 mg/kg) (Anaspec) every other day for 18 days. Control animals were treated with the equal volume of HBSS (Invitrogen, Thermo Fisher Scientific). Tumor growth was measured by a digital caliper every other day. To study the effects of the modified peptides at protein and gene levels, mice were euthanized at the endpoint as indicated.

The nature of series [3]: Systemic toxicity in mice. The format is in vivo. The note with it: 1 mg/kg i.v. every other day for 3 weeks, n = 3. As to the method: To evaluate the potential toxicity associated with systemic treatments of PS-peptide, PS-acet.-STAT3 peptide, PS-oligo, naive peptide, and PO- or PS-acet.-STAT3 peptide were given to the mice at 1 mg/kg through i.v. every other day for 3 weeks.
(§1) Supplemental Figure 10 (related to Figure 3). The systemic toxicity of PS-acet.-peptide.
(§2) The bodyweight (A), blood count (B) and organ morphology (H&E staining; spleen, kidney and liver) (C) of the mice (n=3) treated with HBSS (1), PS-oligo (2), naïve peptide (3), PO-peptide (4) or PS-peptide (5) every other day at 1 mg/kg (per treatment) for 3 weeks.
(§3) Individual value of each mouse is shown as a dot on the graph. The red lines on each graph in (B) indicate the normal ranges. Blood count was done by a veterinary hematology analyzer. The images shown in (C) are the represented H&E section from three mice (n=3). Enlarged view are shown below as indicated. Scale bar, 50 µm.
(§4) Aftabizadeh and Li et al., Figure S10

In series [4] the test system is cancer cells. Put plainly: Confocal microscopy of peptide localisation. As to conditions: 1 μM, 1 hour. It is filed as cell-based. As to the method: (§5) Figure 8 PS-Gp130 and PS-MYC blocking peptides efficiently internalize into tumor cells to exert their functions. (A) For 1 hour 1 μM of PS-conjugated MYC (PS-MYC) and Gp130 (PS-Gp130) were incubated with cancer cells. PS-scramble MYC (PS-SC-MYC) was used as a control for PS-MYC. The peptide uptake was visualized by confocal microscopy and quantified by flow cytometry. Data are representative of 3 independent experiments (n = 3). (B) Upper panel: The binding of PS-Gp130 and STAT3 was examined by immunoprecipitation and Western blotting. PO-Gp130 was used as a control. For 4 hours prior to harvest, 1 μM of peptide was incubated with cells. Lower panel: PS-Gp130 inhibits IL-6–induced phosphorylation of STAT3 and p44/42 but not EGF-mediated signaling. The cells were preincubated with PS-Gp130 for 2 hours and then stimulated with 20 ng/mL of IL-6 or 30 ng/mL of EGF for 30 minutes before harvest and Western blotting. (C) Gene expression of STAT3 targets was examined by quantitative PCR after the treatment with 1 μM of PS-Gp130 with or without IL-6 stimulation as described above. Data shown are 3 independent experiments (n = 3); SD is shown. Unpaired Student’s t test; ***P < 0.005; **P < 0.01; *P < 0.05. (D) A total of 1 μM of PS-SC-MYC or PS-MYC was incubated with cells for 48 hours before the gene expression of MYC targets was examined by quantitative PCR. […]

For series [5] the following is noted: mouse, in vivo. As to the method: as §1, §2, §3, §4
Supplemental Figure 12 (related to Figure 6).
(A) Amino acid sequences of phosphorothioated (*, PS) DNA oligonucleotide-modified Gp130 (PS-Gp130), MYC (PS-MYC) and scrambled MYC (PS-SC-MYC) peptides. PS-Gp130 peptide spans 9 amino acids of Gp130 protein (amino acids […]). PS-MYC peptide contains 9 amino acids of Max protein (amino acids 77-85).
(B and C) The bodyweight (B, n=5) and blood count (C, n=3) of the mice in each treatment group was measured at the end point. Individual value of each mouse is shown as a dot on the graph. The red lines on each graph indicate the normal ranges.
Aftabizadeh and Li et al., Figure S12

The test system of series [6] is MYC target genes. Nature of the series: Gene expression of MYC targets by quantitative PCR. It is filed as cell-based. As to conditions: 1 μM, 48 hours, n = 3. On the procedure:
as §5, with “Lower panel: PS-Gp130 inhibits IL-6–induced phosphorylation of STAT3 and p44/42 but not EGF-mediated signaling. The cells were preincubated with PS-Gp130 for 2 hours and then stimulated with 20 ng/mL of IL-6 or 30 ng/mL of EGF for 30 minutes before harvest and Western blotting.” left out, “Data shown are 3 independent experiments (n = 3); SD is shown. Unpaired Student’s t test; ***P < 0.005; **P < 0.01; *P < 0.05.” left out
Total RNA was extracted from cultured or tumor tissues using RNeasy kit (QIAGEN), according to manufacturer’s instruction. After cDNA synthesis using iScript cDNA Synthesis kit (Bio-Rad), samples were analyzed using pairs of primers specific for CASP9, CASP3, CASP8, BIRC5, BCL2L1, MYC, TP53, VEGF, IL1B, SERPIN3, FGA, CDK4, CCND2, CDKN2A, CDKN2B, GADD45A, mCD274, mMmp9, and mBirc5, as indicated. […]

No end group written: not given here.

For “PDIPKEEAFGK685(Ac)YCRPESQEHPC-linker-TCCATGAGCTTCCTGATGCT [PO-acet.-STAT3 peptide]”, in series [1], the tumor growth entry is reported as “not”. Further, the metastatic lung nodules entry in series [2] was “few antitumor effects”. In series [3], the “behavior, body weight, blood counts” value was “No behavior changes, body weight loss, or abnormal blood counts”; the “morphology and cell death in liver, spleen, kidney tissues (H&E)” value is listed as “no significant morphology change or cell death”.

Take “PS-MYC: PS-conjugated peptide corresponding to leucine zipper segment of MAX (amino acids 77–85) (KNHTHQQDI; also: phosphorothioate oligonucleotide conjugate; UniProt P61244 77-85, looked up, fragment)”: the “intracellular localisation / retention of peptide” value in series [4] is reported as “retained in the nucleus”. For the same substance, the “blood count (anemia)” value in series [5] was “minor anemia”. In series [6], the “expression of MYC-mediated cell cycle and survival genes” value is recorded as “markedly downregulated”; the “expression of MYC-suppressed target genes” value is recorded as “upregulating”.
